What was measured:
mouse melanoma B16-F10 = assay: Mouse tail vein injection metastasis test, mouse melanoma B16-F10; type: in vivo, mice; settings: 0.5 μg/kg/min by subcutaneous osmotic pump, 2 weeks
Method: 6-week-old male […] mice were used (purchased from Japan SLC, Inc.). Mouse melanoma B16-F10 was purchased from ATCC, and cultured in DMEM (Life Technologies Corp.) containing 10% FCS under 5% CO2 at 37° C. The cells in a subconfluent state were treated with EDTA-trypsin, centrifuged, and then suspended in serum free DMEM so as to be 5×10^6 cells/mL. The melanoma cell suspension (100 μL/mouse, 5×10^5 cells) was injected to the tail vein of the mice. The osmotic pumps used were MODEL2002 (for 14-day administration) made by ALZET (Cupertino, Calif,.).
Mice into which an osmotic pump containing 0.9% physiological saline was subcutaneously implanted in the back were assigned to the control group. Similarly, an osmotic pump containing hANP prepared for administration at 0.5 μg/kg/min was subcutaneously implanted into each mouse in the ANP group, an osmotic pump containing mouse BNP prepared for administration at 0.5 μg/kg/min was subcutaneously implanted into each mouse in the BNP group, and an osmotic pump containing hCNP-22 prepared for administration at 2.5 μg/kg/min was subcutaneously implanted into each mouse in the CNP group. To the mice in the sildenafil group, sildenafil citrate at a dosage of 20 mg/kg was intraperitoneally administered once daily. […]

A549 cells [1] = assay: Motility, wound healing assay, A549 cells; type: cell-based; settings: 1 μM hANP, TGF-β1 1 ng/mL, 24 hours
Method: (§1) Using a 6-well dish, the A549 cells were cultured at 4×10^5 cells/well, and the culture medium was replaced with DMEM culture medium free from FBS the next day. After 24 hours of culture, the cells were divided into 3 groups (the control group, the TGF-(31 group, and the TGF-β1+hANP group), and used in the following experiment.
To the culture medium for the TGF-β1+hANP group, the hANP solution was added so that the final concentration of hANP would be 1 μM. For the control group and the TGF-β1 group, the same amount of physiological saline was added to the culture medium. Two hours later, a wound was created at the center of each well with the use of a 200 μL-pipette tip. Immediately after the wound creation, a photograph of each well was taken under a microscope (FIG. 7A). To the TGF-β+hANP group and the TGF-β1 group, TGF-β1 was added so that the final concentration would be 1 ng/mL. After 24-hour culture, a photograph of the same part was taken again to calculate the average ratio of the wounded area width difference between immediately after the wound creation and after 24-hour culture (migration ratio: % wounded area filled) by the following formula.
Migration ratio (%)=(initial wound width−wound width after 24-hour culture)/(initial wound width)×100

A549 cells [2] = assay: Migration ability, Boyden chamber assay, A549 cells; type: cell-based; settings: 1 μM hANP, TGF-β1 1 ng/mL, 20 hours
Method: as §1, with “1×10^5” for “4×10^5”, “TGF-β1” for “TGF-(31”
To the culture medium for the TGF-β+hANP group, the hANP solution was added so that the final concentration of hANP might be 1 μM. For the control group and the TGF-β1 group, the same amount of physiological saline was added to the culture medium. After 2 hours from the addition, the Boyden chamber assay was performed as follows.
DMEM culture medium free from FBS for the control group, the same DMEM culture medium containing TGF-β1 (final concentration: 1 ng/mL) for the TGF-β1 group, and the same DMEM culture medium containing hANP (final concentration: 1 μM) and TGF-β1 (final concentration: 1 ng/mL) for the TGF-β1+hANP group were separately added to each well of a 6-well dish in an amount of 1.5 mL. On the surface of each liquid, a cell culture insert (8.0 μm pore size, made by Becton, Dickinson and Company) was placed, and onto each cell culture insert, 1.5 mL of a cell suspension of A549 cells of each group in FBS-free DMEM (hANP at final concentration of 1 μM was added for the TGF-β1+hANP group) was added and cultured. […]

HUVEC = assay: VE-cadherin expression and intercellular adhesion of confluent HUVEC with VEGF; type: cell-based, human; settings: VEGF+hANP
Method: (§2) Normal human umbilical cord vein endothelial cells (HUVEC) were purchased from Takara Bio, Inc. Medium preparation and subculture were performed according to the package insert. Nuclear staining was performed using TOPRO3 (purchased from Invitrogen), and immunostaining of VE-cadherin was performed using anti-VE-cadherin antibody (purchased from BD Biosciences). p After culturing the HUVEC to confluent and replacing the medium with a serum free medium, nuclear staining and immunostaining using anti-VE-cadherin antibody were performed in the presence or absence of VEGF and hANP to observe the expression of VE-cadherin.

A549 cells [3] = assay: Apoptosis induction, cell viability by trypan blue staining, A549 cells; type: cell-based; settings: hANP 1, 5, 10 μM added 4 times, 48 hours
Method: Using a 96-well dish, the A549 cells were cultured at 1×10^4 cells/well. The culture medium was replaced with DMEM culture medium free from FBS the next day, and after 24-hours culture, the following experiment was conducted.
To the culture medium, a hANP solution prepared by serial dilution was added so that the final concentration of hANP would be 1, 5, or 10 μM (for the control group, the same amount of physiological saline was added). Further, 2, 4, and 6 hours later, the same amounts of the hANP solutions at the same concentrations were added (for the control group, the same amount of physiological saline was added) (4 times in total). 48 hours later, trypan blue staining was performed and the cell viability (number of living cells/total number of all cells) was determined with the use of an automatic cell counter Countess (registered trademark) (Invitrogen).

HUVEC cell layer = assay: Implantation of A549 cells into HUVEC cell layer; type: cell-based, human; settings: VEGF+hANP (1 μM)
Method: as §2
In the presence of VEGF alone, the expression of VE-cadherin decreased, and intercellular gaps were observed. […] Further, in the presence of VEGF alone, when A549 cells were added onto the HUVEC cell layer, implantation of the A549 cells into the HUVEC cell layer was observed.

In the case of CC[C@H](C)[C@@H]1NC(=O)[C@H](CCCNC(=N)N)NC(=O)[C@H](CC(=O)O)NC(=O)[C@H](CCSC)NC(=O)[C@H](CCCNC(=N)N)NC(=O)CNC(=O)CNC(=O)[C@H](Cc2ccccc2)NC(=O)[C@@H](NC(=O)[C@H](CO)NC(=O)[C@H](CO)NC(=O)[C@H](CCCNC(=N)N)NC(=O)[C@H](CCCNC(=N)N)NC(=O)[C@H](CC(C)C)NC(=O)[C@@H](N)CO)CSSC[C@@H](C(=O)N[C@@H](CC(N)=O)C(=O)N[C@@H](CO)C(=O)N[C@@H](Cc2ccccc2)C(=O)N[C@@H](CCCNC(=N)N)C(=O)N[C@@H](Cc2ccc(O)cc2)C(=O)O)NC(=O)CNC(=O)[C@H](CC(C)C)NC(=O)CNC(=O)[C@H](CO)NC(=O)[C@H](CCC(N)=O)NC(=O)[C@H](C)NC(=O)CNC1=O [hANP, carperitide], the “lung metastasis of melanoma (number of nodules)” value (mouse melanoma B16-F10) is reported as “significantly suppressed”, the “motility (migration ratio, % wounded area filled)” value (A549 cells [1]) is reported as “significantly suppressed” and the “migration ability (cells on lower surface of insert)” value (A549 cells [2]) is reported as “significantly suppressed”. For the same compound, the “decrease of VE-cadherin expression and intercellular gaps caused by VEGF” value (HUVEC) was “this phenomenon was suppressed”, the “number of living cancer cells (cell viability)” value (A549 cells [3]) was “decreased in a hANP-concentration-dependent manner” and the “implantation of A549 cells into the HUVEC cell layer” value (HUVEC cell layer) was “this phenomenon of implantation was suppressed”.
